According to publication PMC6773697, “Antileukemic activity of novel adenosine derivatives” (Scientific Reports, 2019):

Assays:
γH2AX in MOLT-4 cells = assay: H2AX (phospho S139) In-Cell ELISA, MOLT-4; format: cell-based, human; details: MOLT-4, 48 h, versus CLA
Procedure: The level H2AX protein phosphorylated Ser139 was measured in tested leukemia cells by using of In-Cell ELISA, ICE assay kit. The cells were seeded on 96-well plates (100 × 10^3/well) and 48 h later, incubated with the appropriate compounds. In some experimental variants, cells were preincubated for 1 h with VE-821 (10 µM). The cells were fixed by adding a final concentration of 4% paraformaldehyde solution (10 min, room temperature). After 2 h of Block Solution incubation, cells were treated with a highly specific antibody. A rabbit monoclonal antibody specific to H2AX (phospho S139) was used (at 1:100, 2 h incubation). Next Secondary Antibody Solution (at 1:1000) were added to the cells. The measurements were obtained on a fluorescence plate reader at an excitation wavelength of 680 nm and emission at 694 nm. The cells were PBS washed and 100 µL of Janus Green Stain was added to each well of the plate (5 min., room temperature). The data were collected at excitation wavelength of 750 nm and emission at 800 nm channel (Fluoroskan Cary Eclipse). Antibody signal intensity was normalized to the total amount using Janus Green cell-stain.

HMEC-1 cells = assay: XTT cytotoxicity assay, HMEC-1 (normal dermal endothelium); format: cell-based; details: Homo sapiens, 48 h incubation, none in the picture
Procedure: (§1) The cytotoxic activity test with XTT (sodium 3′-[1-(phenylaminocarbonyl)- 3,4-tetrazolium]-bis (4-methoxy-6-nitro) benzene sulfonic acid hydrate) is a colorimetric method for determining the parameters associated with cell viability. The cytotoxicity in HL-60, THP-1, MOLT-4, and HMEC-1 cells was measured by the XTT assay. XTT is reduced to formazan by the mitochondrial respiratory chain oxidoreductase, which is active only in living cells. The formed crystals of formazan are dissolved directly in the medium. The amount of product is proportional to the number of live cells.
(§2) The IC50 parameter was determined by dividing the mean absorbance values of the drug-treated samples by those of control cells and defined as the drug concentration causing a 50% reduction of cell viability relative to the control. It was calculated using the “Ed50v10(1)” computer application. Cells were plated in 96-well plates at a density of 15 × 10^3 cells in 100 μL culture medium. Drugs were then added at a concentration range of 10 nM–10,000 nM to obtain a final volume of the mixture of 150 μL. Some cells were preincubated with an ATR kinase inhibitor (VE-821) for 1 h at 37 °C before adding the tested compounds. In this case drugs were added at a concentration range of 10 nM–300 nM. For the XTT assay, after 48 h of incubation, the plates were centrifuged at 1,500 rpm for 10 min at 4 °C, the culture medium was removed, and the cells were suspended in 100 mm^3 of HBSS (Hank’s Buffered Salt Solution) containing 140 mM NaCl, 5 mM KCl, 0.8 mM MgCl2, 1.8 mM CaCl2, 1 mM Na2HPO4, 10 mM HEPES (N- (2-hydroxyethyl) -piperazine-N′- (2-ethanesulfonic acid), and 1% glucose at pH 7.4. Then, 50 μL of XTT solution (in PBS) was added to a final concentration of […]. In addition, PMS (phenazine methosulphate) - methyl dibenzo-N-methylpyrazine sulphate (0.383 mg/cm^3) was used, which was combined with XTT solution at a ratio of 1:50. After 4 h of incubation with XTT, absorbance was measured at a wavelength λ = 450 nm and reference wavelength λ = 690 nm with a microplate reader (BioTek, Winooski, VT, USA).

THP-1 cells = assay: Comet assay with proteinase K post-treatment (DNA-protein cross-links), THP-1; format: cell-based, human
Procedure: (§3) Single cell gel electrophoresis (comet assay) was used to detect alkali labile sites, single and double DNA strand breaks, and cross-links induced by genotoxic agents. After electrophoresis and gel staining with 4,6-diamidino-2-phenylindole (DAPI), the released DNA was visible under a fluorescence microscope as a characteristic comet tail. The cells were plated on 24-well plates (20,000 cells/mL) and treated with CLA, CLA-FMOR, CLA-FPIP, or CLA-FPIR at the indicated concentrations for 2, 24, and 48 h at 37 °C. Some cells were preincubated with an ATR kinase inhibitor (VE-821) for 1 h at 37 °C before adding the tested compounds. Next, cells were collected into Eppendorf tubes and rinsed with PBS. Then, cells were suspended in 0.75% low melting point (LMP) agarose dissolved in PBS (pH 7.4) and placed on microscope slides precoated with 0.5% normal melting point (NMP) agarose. Subsequently, the slides were treated with a cooled lysis buffer (2.5 M NaCl, 100 mM EDTA, 10 mM Tris, 1% Triton X-100, pH 9.0) for 1–24 h at 4 °C. Then, slides were placed in developing buffer (300 mM NaOH, 1 mM EDTA) for 20 min. Electrophoresis was performed in […] (30 mM NaOH, 1 mM EDTA) at 29 V and 30 mA for 20 min. The samples were stained with DAPI ([…]). The slides were stored in a wet chamber at 4 °C and analyzed under a fluorescence microscope. Fifty randomly selected cells from each slide were measured using image analysis (Nikon, Japan) attached to a COHU 4910 video camera, which was equipped with a UV-1 filter block consisting of an excitation filter (359 nm) and a barrier filter (461 nm) connected to the image analysis system Lucia-Comet v. 4.51 (Czech Republic)[41]. In the samples preincubated with VE-821, the level of DNA damage associated with the ATR kinase was determined.
Because cross-links can be undetectable in the alkaline comet assay, a variant of this method including post-treatment with proteinase K (Cat no: P2308) was used. […]

HL-60 cells = assay: Comet assay with proteinase K post-treatment (DNA-protein cross-links), HL-60; format: cell-based, human; details: for DNA damage after proteinase K: HL-60, 24 h
Procedure: as §3
Because cross-links can be undetectable in the alkaline comet assay, a variant of this method including post-treatment with proteinase K (Cat no: P2308) was used. Proteinase K digests peptide bonds, releasing the cross-linked DNA […] the DNA-protein complexes without altering the structure of the DNA-DNA complexes to distinguish them. After lysis, the slides were washed three times in TE buffer (10 mM Tris, pH 10, 1 mM EDTA). The cells were treated with aliquots of proteinase K (60 µL per slide; 1 mg/mL TE buffer) for 1 h at 37 °C in a wet chamber. Further steps of the comet assay were performed as described above.

MOLT-4 cells = assay: XTT cytotoxicity assay, MOLT-4; format: cell-based, human; details: for IC50: Homo sapiens, MOLT-4, XTT, 48 h incubation, none in the picture
Procedure: as §1, §2

**Q.** Which results are given for `OC[C@H]1O[C@@H](n2cnc3c(N=CN4CCCC4)nc(Cl)nc32)C[C@@H]1O` [CLA-FPIR, [6-deamino-6-(N′, N′-l′, 4′-tetramethyleneformamidino)] cladribine]?
**A.** effectiveness in inducing dsDNA (γH2AX) relative to CLA (γH2AX in MOLT-4 cells): about 2 fold; IC50 (HMEC-1 cells): 231 nM; DNA damage in the tail after proteinase K (THP-1 cells; THP-1, 24 h): increased; DNA damage after proteinase K (HL-60 cells): increased the DNA damage; IC50 (MOLT-4 cells): 127 nM

**Q.** What does the source list for `OC[C@H]1O[C@@H](n2cnc3c(N=CN4CCOCC4)nc(Cl)nc32)C[C@@H]1O` [CLA-FMOR, [6-deamino-6-(N′, N′-3′-oxa-1′, 5′-pentamethyleneformamidine)] cladribine]?
**A.** effectiveness in inducing dsDNA (γH2AX) relative to CLA (γH2AX in MOLT-4 cells): about 2 fold; IC50 (HMEC-1 cells): 287 nM; DNA damage in the tail after proteinase K (THP-1 cells; THP-1, 2–48 h): increased; DNA damage after proteinase K (HL-60 cells): increased the DNA damage; DNA-protein cross-links after proteinase K (HL-60 cells; HL-60, starting at 2 h of incubation): increased the level of cross-links; IC50 (MOLT-4 cells): 73 nM; cytotoxic potency compared with CLA (MOLT-4 cells; MOLT-4, XTT): more potent than CLA
